This is an account of results in patent US8394442B2, “Process for the preparation of a flavoring concentrate, and a flavoring concentrate” (SYMRISE AG, priority 2007, dated 2013).

Series [1] can be described thus: log Pow: distribution coefficient between 1-octanol and water. The note with it: 1-octanol/water.
Text: Log Pow*=log Pow*−x*P′(x)/log Pow Formula 2: • where log Pow is the decimal logarithm of the distribution coefficient of a substance between 1-octanol and water, • x is the resulting solvent proportion based on the total volume proportion, normalized as 1.0, and • P′(x) is the polarity parameter for the corresponding solvent for the solvent proportion x.
A short description of series [2]: log Pow* calculated by Formula 2 from log Pow and the polarity parameter P′(x) of the ethanol/water mixture. The conditions noted are these: solvent ethanol.

As for Isopropylmethoxypyrazine, in series [1], the “log Pow” value is on record as 2.09. Moreover, in series [2] (proportion 2%), the “log Pow* (P′ 2%)” value is on record as 1.99. Besides, the “log Pow* (P′ 4%)” value in series [2] (proportion 4%) is on record as 1.90. Further, the “log Pow* (P′ 6%)” value in series [2] (proportion 6%) is 1.82. For the same substance, the “log Pow* (P′ 8%)” value in series [2] (proportion 8%) was 1.74. The “log Pow* (P′ 10%)” value in series [2] (proportion 10%) was 1.66. In series [2] (proportion 30%), the “log Pow* (P′ 30%)” value is given as 1.05. Also, the “log Pow* (P′ 40%)” value in series [2] (proportion 40%) is 0.83. The “log Pow* (P′ 50%)” value in series [2] (proportion 50%) is 0.64. Moreover, in series [2] (proportion 60%), the “log Pow* (P′ 60%)” value was 0.48. In series [2] (proportion 70%), the “log Pow* (P′ 70%)” value is given as 0.35. In series [2] (proportion 80%), the “log Pow* (P′ 80%)” value is given as 0.23. The “log Pow* (P′ 90%)” value in series [2] (proportion 90%) was 0.12. Further, in series [2] (proportion 100%), the “log Pow* (P′ 100%)” value is 0.03.
